PubChem BioAssay AID330 (DTP/NCI, 2004)
Where “and” joins values, the source holds several entries; their conditions need not be identical. Equal entries are not always repeated. Toxic doses and inconclusive results are not listed.

Test system: P388 leukemia ip, CD2F1 mice, survival T/C
Assay: NCI In Vivo Anticancer Drug Screen. Data for tumor model P388 Leukemia (intraperitoneal) in CD2F1 (CDF1) mice
Conditions: endpoint: median survival time, higher = longer survival
In short: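 Mice carrying the transplanted tumor received test compound or vehicle. Survival was recorded in each group, and the value is the treated-group measurement divided by that of the vehicle-treated control group.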

[1] = dose: 25.0 mg/kg/injection, schedule: Q01DX009 (ip), vehicle: saline with Tween-80
[2] = dose: 50.0 mg/kg/injection, schedule: Q01DX009 (ip), vehicle: saline with Tween-80
[3] = dose: 100.0 mg/kg/injection, schedule: Q01DX009 (ip), vehicle: saline with Tween-80
[4] = dose: 200.0 mg/kg/injection, schedule: Q01DX009 (ip), vehicle: saline with Tween-80
[5] = dose: 60.0 mg/kg/injection, schedule: Q01DX005 (ip), vehicle: saline with Tween-80
[6] = dose: 120.0 mg/kg/injection, schedule: Q01DX005 (ip), vehicle: saline with Tween-80
[7] = dose: 240.0 mg/kg/injection, schedule: Q01DX005 (ip), vehicle: saline with Tween-80
[8] = dose: 50.0 mg/kg/injection, schedule: Q01DX005 (ip), vehicle: saline with Tween-80
[9] = dose: 100.0 mg/kg/injection, schedule: Q01DX005 (ip), vehicle: saline with Tween-80
[10] = dose: 200.0 mg/kg/injection, schedule: Q01DX005 (ip), vehicle: saline with Tween-80

## O=C(CC(O)(C(F)(F)F)C(F)(F)F)c1cc(CC(=O)C(O)(C(F)(F)F)C(F)(F)F)cc(CC(=O)C(O)(C(F)(F)F)C(F)(F)F)c1
[1]
  T/C: 97 % of control
[2]
  T/C: 103 % of control
[3]
  T/C: 100 % of control
[4]
  T/C: 105 % of control
dose: 400.0 mg/kg/injection, schedule: Q01DX009 (ip), vehicle: saline with Tween-80
  T/C: 115 % of control

## O=C1c2ccccc2CN1Cc1ccc(Cl)c(Cl)c1
[2]
  T/C: 96 % of control
[3]
  T/C: 89 % of control
[4]
  T/C: 91 % of control

## O=C1CSCc2sccc21
[5]
  T/C: 94 % of control
[6]
  T/C: 106 % of control
[7]
  T/C: 101 % of control

## Oc1ccc(C(c2cc3c(cc2O)OCO3)N2CCNCC2)cc1 (centres undefined)
[5]
  T/C: 114 % of control
[6]
  T/C: 115 % of control
[7]
  T/C: 113 % of control

## Cc1cc2c(cc1C)C(=O)c1cc3c(cc1C2=O)OCO3
[5]
  T/C: 94 % of control
[6]
  T/C: 91 % of control
[7]
  T/C: 89 % of control

## C=C(C)CNCCN
[8]
  T/C: 112 % of control
[9]
  T/C: 112 % of control
[10]
  T/C: 112 % of control

## O=c1ccc2ccc3occc(=O)c3c2o1
[8]
  T/C: 106 % of control
[9]
  T/C: 108 % of control
[10]
  T/C: 98 % of control

## CC(=O)NC(Cc1ccccc1F)C(=O)O (centres undefined)
dose: 50.0 mg/kg/injection, schedule: Q01DX009 (ip), vehicle: saline
  T/C: 94 % of control
dose: 100.0 mg/kg/injection, schedule: Q01DX009 (ip), vehicle: saline
  T/C: 94 % of control
dose: 200.0 mg/kg/injection, schedule: Q01DX009 (ip), vehicle: saline
  T/C: 97 % of control

## COC1OC2COc3ccccc3OC2C(NC#N)C1OC (centres undefined)
dose: 60.0 mg/kg/injection, schedule: Q01DX005 (ip), vehicle: Klucel (hydroxypropylcellulose) (HPC)
  T/C: 112 % of control
dose: 120.0 mg/kg/injection, schedule: Q01DX005 (ip), vehicle: Klucel (hydroxypropylcellulose) (HPC)
  T/C: 108 % of control
dose: 240.0 mg/kg/injection, schedule: Q01DX005 (ip), vehicle: Klucel (hydroxypropylcellulose) (HPC)
  T/C: 107 % of control

## CC(=O)ON(C(=O)c1ccccc1)c1ccccc1
[5]
  T/C: 104 % of control
[6]
  T/C: 102 % of control
[7]
  T/C: 99 % of control

## CCCCOc1ccc(C(C)c2cc3c(cc2OC)OCO3)cc1 (centres undefined)
dose: 25.0 mg/kg/injection, schedule: Q01DX005 (ip), vehicle: Klucel (hydroxypropylcellulose) (HPC)
  T/C: 107 % of control
dose: 50.0 mg/kg/injection, schedule: Q01DX005 (ip), vehicle: Klucel (hydroxypropylcellulose) (HPC)
  T/C: 95 % of control
dose: 100.0 mg/kg/injection, schedule: Q01DX005 (ip), vehicle: Klucel (hydroxypropylcellulose) (HPC)
  T/C: 101 % of control
dose: 200.0 mg/kg/injection, schedule: Q01DX005 (ip), vehicle: Klucel (hydroxypropylcellulose) (HPC)
  T/C: 98 % of control

## Cc1nn(C(=O)c2cccnc2)c(-c2ccccc2)c1N=Nc1ccc(S(=O)(=O)Nc2ncccn2)cc1
[8]
  T/C: 89 % of control
[9]
  T/C: 88 % of control

## N#Cc1ccc([N+](=O)[O-])o1
dose: 12.5 mg/kg/injection, schedule: Q01DX009 (ip), vehicle: saline with Tween-80
  T/C: 100 % of control
[1]
  T/C: 90 % of control
[2]
  T/C: 95 % of control

## O=C(O)C(Cc1c[nH]c2ccccc12)C(=O)NO (centres undefined)
dose: 60.0 mg/kg/injection, schedule: Q01DX005 (ip), vehicle: saline
  T/C: 97 % of control
dose: 120.0 mg/kg/injection, schedule: Q01DX005 (ip), vehicle: saline
  T/C: 97 % of control
dose: 240.0 mg/kg/injection, schedule: Q01DX005 (ip), vehicle: saline
  T/C: 94 % of control

## COC1NC(=S)N(Cc2ccccc2)C1(C)C (centres undefined)
dose: 50.0 mg/kg/injection, schedule: Q01DX009 (ip), vehicle: suspension in saline
  T/C: 102 % of control
dose: 100.0 mg/kg/injection, schedule: Q01DX009 (ip), vehicle: suspension in saline
  T/C: 97 % of control
dose: 200.0 mg/kg/injection, schedule: Q01DX009 (ip), vehicle: suspension in saline
  T/C: 93 % of control

## O=C1C(CCl)(CCl)CCC1(CCl)CCl
[8]
  T/C: 100 % of control
[9]
  T/C: 105 % of control
[10]
  T/C: 94 % of control

## NC(=O)Nc1cc(NC(N)=O)cc(N(CCCl)CCCl)c1
dose: 17.8 mg/kg/injection, schedule: Q04DX003 (ip), vehicle: water
  T/C: 177 % of control
dose: 20.0 mg/kg/injection, schedule: Q04DX003 (ip), vehicle: water
  T/C: 173 % of control
dose: 26.6 mg/kg/injection, schedule: Q04DX003 (ip), vehicle: water
  T/C: 206 % of control
dose: 40.0 mg/kg/injection, schedule: Q04DX003 (ip), vehicle: water
  T/C: 194 % of control and 215 % of control
